Several values for one entry are separate records, joined by “and”; a condition that tells them apart may be missing. Identical values can stand only once. Like-named read-outs stand apart in the source and are kept apart here.
Key:
SW1573 = conditions: Canon et al., Nature 575:217-223 (2019); cited from earlier work
NCI-H358 (K-Ras G12C) = assay: CellTiter-Glo cell viability assay, NCI-H358; type: cell-based, human; conditions: Table 5; read-out: H358 Cell Viability assay data (K-Ras G12C, IC50)
Summary of the method: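 Compounds dispensed directly onto plated NCI-H358 cells; plates equilibrated to room temperature on day 5 before luminescence read-out. Signal normalized to mean DMSO control (%) and fitted by four-parameter logistic.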

[1] = test system: NCI-H358 KRASG12C xenograft; assay: In vivo NSCLC K-Ras G12C xenograft model (tumor growth); parameters: species or system BALB/c nude mice
NSCLC (KRAS G12C) model = assay: NSCLC (KRAS G12C) xenograft model, combinations; type: in vivo, mice
[2] = single agents: Compound B 50 mg/kg intravenous twice weekly, cobimetinib […] daily oral

CC(C)[Si](Oc1cc2cc(c1)-c1ccc3[nH]c(I)c(c3c1)CC(C)(C)COC(=O)[C@@H]1CCCN(N1)C(=O)[C@@H](NC(=O)OC(C)(C)C)C2)(C(C)C)C(C)C
ring closure, yield of all isomers (from CC(C)[Si](Oc1cc(C[C@H](NC(=O)OC(C)(C)C)C(=O)N2CCC[C@@H](C(=O)O)N2)cc(-c2ccc3[nH]c(I)c(CC(C)(C)CO)c3c2)c1)(C(C)C)C(C)C, ester bond, EDCI/HOBt/DIPEA, DCM, 22.8 mM, 25.0 °C, 16.0 h): 50%

CC1(C)COC(=O)[C@@H]2CCCN(N2)C(=O)[C@@H](NC(=O)OC(C)(C)C)Cc2cccc(c2)-c2ccc3[nH]c(I)c(c3c2)C1
ring closure, yield of all isomers (from CC(C)(CO)Cc1c(I)[nH]c2ccc(-c3cccc(C[C@H](NC(=O)OC(C)(C)C)C(=O)N4CCC[C@@H](C(=O)O)N4)c3)cc12, ester bond, EDCI/HOBt/DIPEA, DCM, 12.8 mM, 0.0 °C, 16.0 h): 79.8%

CCn1c(-c2ccccc2COC)c2c3cc(ccc31)-c1cc(cc([N+](=O)[O-])c1)C[C@H](NC(=O)OC(C)(C)C)C(=O)N1CCC[C@H](N1)C(=O)OCC(C)(C)C2
ring closure, yield of all isomers (from CCn1c(-c2ccccc2COC)c(CC(C)(C)CO)c2cc(-c3cc(C[C@H](NC(=O)OC(C)(C)C)C(=O)N4CCC[C@@H](C(=O)O)N4)cc([N+](=O)[O-])c3)ccc21, ester bond, EDCI/HOBt/DIPEA, DCM, 6.4 mM, 25.0 °C, 16.0 h): 73%

CCn1c(-c2cccnc2[C@H](C)OC)c2c3cc(ccc31)-c1cc(cc(C(F)F)c1)C[C@H](NC(=O)OC(C)(C)C)C(=O)N1CCC[C@H](N1)C(=O)OCC(C)(C)C2
ring closure, yield of all isomers (from CCn1c(-c2cccnc2[C@H](C)OC)c(CC(C)(C)CO)c2cc(-c3cc(C[C@H](NC(=O)OC(C)(C)C)C(=O)N4CCC[C@@H](C(=O)O)N4)cc(C(F)F)c3)ccc21, ester bond, EDCI/HOBt/DIPEA, DCM, 16.0 h): 51%

CCn1c(-c2cccnc2[C@H](C)OC)c2c3cc(ccc31)-c1cc(cc(O[Si](C(C)C)(C(C)C)C(C)C)c1)C[C@H](NC(=O)OC(C)(C)C)C(=O)N1CCC[C@H](N1)C(=O)OCC(C)(C)C2
ring closure, yield of all isomers (from CCn1c(-c2cccnc2[C@H](C)OC)c(CC(C)(C)CO)c2cc(-c3cc(C[C@H](NC(=O)OC(C)(C)C)C(=O)N4CCC[C@@H](C(=O)O)N4)cc(O[Si](C(C)C)(C(C)C)C(C)C)c3)ccc21, ester bond, EDCI/HOBt/DIPEA, DCM, 15.3 mM, 25.0 °C, 16.0 h): 42%

CCn1c(-c2cccnc2[C@H](C)OC)c2c3cc(ccc31)-c1nc(co1)C[C@H](NC(=O)OC(C)(C)C)C(=O)N1CCC[C@H](N1)C(=O)OCC(C)(C)C2
ring closure, yield of all isomers (from CCn1c(-c2cccnc2[C@H](C)OC)c(CC(C)(C)COC(=O)[C@@H]2CCCN(C(=O)[C@H](Cc3coc(Br)n3)NC(=O)OC(C)(C)C)N2)c2cc(B3OC(C)(C)C(C)(C)O3)ccc21, cc_pd bond, XPhos Pd G3, dioxane, […], 70.0 °C, 4.0 h): 56%

CCn1c(-c2cccnc2[C@H](C)OC)c2c3cc(ccc31)-c1nc(nn1C)C[C@H](NC(=O)OC(C)(C)C)C(=O)N1CCC[C@H](N1)C(=O)OCC(C)(C)C2
ring closure, yield of all isomers (from CCn1c(-c2cccnc2[C@H](C)OC)c(CC(C)(C)COC(=O)[C@@H]2CCCN(C(=O)[C@H](Cc3nc(Br)n(C)n3)NC(=O)OC(C)(C)C)N2)c2cc(B3OC(C)(C)C(C)(C)O3)ccc21, cc_pd bond, XPhos Pd G3, dioxane, 71.7 mM, 75.0 °C, 3.0 h): 56.8%

CCn1c(-c2cccnc2[C@H](C)OC)c2c3cc(ccc31)-c1cnc(o1)C[C@H](NC(=O)OC(C)(C)C)C(=O)N1CCC[C@H](N1)C(=O)OCC(C)(C)C2
ring closure, yield of all isomers (from CCn1c(-c2cccnc2[C@H](C)OC)c(CC(C)(C)CO)c2cc(-c3cnc(C[C@H](NC(=O)OC(C)(C)C)C(=O)N4CCC[C@@H](C(=O)O)N4)o3)ccc21, ester bond, EDCI/HOBt, DIPEA, DCM, 13.7 mM, 0.0 °C, 2.0 h): 56.4%

CCn1c(-c2cccnc2[C@H](C)OC)c2c3cc(ccc31)N1CCC[C@@H](C[C@H](NC(=O)OCc3ccccc3)C(=O)N3CCC[C@H](N3)C(=O)OCC(C)(C)C2)C1
ring closure, yield of all isomers (from CCn1c(-c2cccnc2[C@H](C)OC)c(CC(C)(C)CO)c2cc(N3CCC[C@@H](C[C@H](NC(=O)OCc4ccccc4)C(=O)N4CCC[C@@H](C(=O)O)N4)C3)ccc21, ester bond, EDCI/HOBt/DIPEA, DCM, 36.7 mM, 25.0 °C, 6.0 h): 36%

CCn1c(-c2cccnc2[C@H](C)OC)c2c3cc(ccc31)N1CCO[C@@H](C[C@H](NC(=O)OCc3ccccc3)C(=O)N3CCC[C@H](N3)C(=O)OCC(C)(C)C2)C1
ring closure, yield of all isomers (from CCn1c(-c2cccnc2[C@H](C)OC)c(CC(C)(C)CO)c2cc(N3CCO[C@@H](C[C@H](NC(=O)OCc4ccccc4)C(=O)N4CCC[C@@H](C(=O)O)N4)C3)ccc21, ester bond, EDCI/HOBt/DIPEA, DCM, 12.75 mM, 25.0 °C, 16.0 h): 66%

CCn1c(-c2cccnc2[C@H](C)OC)c2c3nc(ccc31)-c1csc(n1)C[C@H](NC(=O)OC(C)(C)C)C(=O)N1CCC[C@H](N1)C(=O)OCC(C)(C)C2
ring closure, yield of all isomers (from CCn1c(-c2cccnc2[C@H](C)OC)c(CC(C)(C)CO)c2nc(-c3csc(C[C@H](NC(=O)OC(C)(C)C)C(=O)N4CCC[C@@H](C(=O)O)N4)n3)ccc21, ester bond, EDCI HCl/HOBt/DIPEA, DCM, 6.4 mM, 25.0 °C, 16.0 h): 43%

CO[C@@H](C)c1ncc(N2CCN(C(=O)OCc3ccccc3)CC2)cc1-c1c2c3cc(ccc3n1CC(F)(F)F)-c1cccc(c1)C[C@H](NC(=O)OC(C)(C)C)C(=O)N1CCC[C@H](N1)C(=O)OCC(C)(C)C2
ring closure, yield of all isomers (from CO[C@@H](C)c1ncc(N2CCN(C(=O)OCc3ccccc3)CC2)cc1-c1c(CC(C)(C)CO)c2cc(-c3cccc(C[C@H](NC(=O)OC(C)(C)C)C(=O)N4CCC[C@@H](C(=O)O)N4)c3)ccc2n1CC(F)(F)F, ester bond, EDCI/HOBt/DIPEA, DCM, 9.87 mM, 25.0 °C, 12.0 h): 67.9%

CO[C@@H](C)c1ncccc1-c1c2c3cc(ccc3n1CC(F)(F)F)N1CCO[C@@H](C[C@H](NC(=O)OCc3ccccc3)C(=O)N3CCC[C@H](N3)C(=O)OCC(C)(C)C2)C1
ring closure, yield of all isomers (from CO[C@@H](C)c1ncccc1-c1c(CC(C)(C)CO)c2cc(N3CCO[C@@H](C[C@H](NC(=O)OCc4ccccc4)C(=O)N4CCC[C@@H](C(=O)O)N4)C3)ccc2n1CC(F)(F)F, ester bond, EDCI/HOBt/DIPEA, DCM, 11.25 mM, 16.0 h): 74%

C=CC(=O)N1CCN(c2nc(=O)n(-c3c(C)ccnc3C(C)C)c3nc(-c4c(O)cccc4F)c(F)cc23)[C@@H](C)C1 [AMG510]
sensitivity of cell line (SW1573): insensitive

C=CC(=O)N1CC[C@H](C(=O)N(C)[C@H](C(=O)N[C@H]2Cc3cc(O)cc(c3)-c3ccc4c(c3)c(c(-c3ccc(CN5CCCC5)cc3)n4CC)CC(C)(C)COC(=O)[C@@H]3CCCN(N3)C2=O)C(C)C)C1 [Examples A10]
IC50 (NCI-H358 (K-Ras G12C)): 10 to 100 nM

Cc1nc(N2CCC3(CC2)CO[C@@H](C)[C@H]3N)c(CO)nc1-c1cccc(Cl)c1Cl [RMC-4550]
mice with tumor regression (greater than 10% reduction of tumor volume at end of study) ([1]; single agents: Compound C 60 mg/kg intravenous once weekly, SHP2 inhibitor (RMC-4550) 30 mg/kg daily oral): 5 out of 10

O=C(c1ccc(F)c(F)c1Nc1ccc(I)cc1F)N1CC(O)([C@@H]2CCCCN2)C1 [cobimetinib]
tumor response, single agent (FIG. 3A) (NSCLC (KRAS G12C) model; Compound B 50 mg/kg intermittent intravenous or cobimetinib […] daily oral, alone): tumor growth inhibition
tumor regressions at end of study, single agent group (FIG. 3B) (NSCLC (KRAS G12C) model; each single agent): no tumor regressions
effect on tumor growth [1, 2]: tumor growth inhibition
mice with tumor regression (greater than 10% reduction of tumor volume at end of study) [1, 2]: no tumor regressions

(2R)-2-(((1-(4-(dimethylamino)-4-methylpent-2-ynoyl)azetidin-3-yl)oxy)methyl)-N-((6^3S,4S)-1^1-ethyl-1^2-(2-((S)-1-methoxyethyl)pyridin-3-yl)-10,10-dimethyl-5,7-dioxo-6^1,6^2,6^3,6^4,6^5,6^6-hexahydro-1^1H-8-oxa-1(5,3)-indola-6(1,3)-pyridazina-2(1,3)-benzenacycloundecaphane-4-yl)-3-methylbutanamide [Compound A316]
IC50 (NCI-H358 (K-Ras G12C)): < 10 nM

(2S)-N-[(7S,13S)-21-ethyl-20-[2-(methoxymethyl)pyridin-3-yl]-17,17-dimethyl-8,14-dioxo-15-oxa-4-thia-9,21,27,28-tetraazapentacyclo[17.5.2.1^2,^5.1^9,^13.0^22,^26]octacosa-1(25),2,5(28),19,22(26),23-hexaen-7-yl]-3-methyl-2-{N-methyl-1-[(3S)-1-(prop-2-enoyl)pyrrolidin-3-yl]formamido}butanamide [Compound A194]
IC50 (NCI-H358 (K-Ras G12C)): < 10 nM and 10 to 100 nM

(2S)-N-[(8S,14S,20P)-22-ethyl-21-{4-[(1S)-1-methoxyethyl]pyridin-3-yl}-18,18-dimethyl-9,15-dioxo-16-oxa-10,22,28-triazapentacyclo[18.5.2.1^2,^6.1^10,^14.0^23,^27]nonacosa-1(26),2,4,6(29),20,23(27),24-heptaen-8-yl]-3-methyl-2-{N-methyl-1-[(3S)-1-(prop-2-enoyl)pyrrolidin-3-yl]formamido}butanamide [Compound A115]
IC50 (NCI-H358 (K-Ras G12C)): 10 to 100 nM

Reference: patent EP4806900A2, “RAS INHIBITORS” (Revolution Medicines, Inc., priority 2019, dated 2021)
